Test results taken from ChEMBL document CHEMBL3885861, “Open TG-GATES”.

Species: Rattus norvegicus
Experiment: Open TG-GATES - Regimen: Daily Repeat
Assay type: toxicity, organism-based, Sprague-Dawley
Design: regimen Daily Repeat, gender Male, age 6 weeks
Conditions: in vivo, po, route gavage; for APTT / Bas / Eos / Fbg / Hb / Ht / Lym / MCH / MCHC / MCV / Mono / Neu / PT / Plat / RBC / Ret / WBC: tissue Blood; for KIDNEY_L / KIDNEY_R / KIDNEY_TOTAL: tissue Kidney; for LIVER: tissue Liver; for A/G / ALP / ALT / AST / BUN / CRE / Ca / Cl / DBIL / GLC / IP / K / LDH / Na / PL / RALB / TBIL / TC / TG / TP / gamma-GTP: tissue Plasma
[1] = 0 mg/kg, 72 h, dose level Control, time 3 day
[2] = 0 mg/kg, […], dose level Control, time 7 day
[3] = 0 mg/kg, […], dose level Control, time 14 day
[4] = 0 mg/kg, […], dose level Control, time 28 day
[5] = 50 mg/kg, 72 h, dose level Low, time 3 day
[6] = 50 mg/kg, […], dose level Low, time 7 day
[7] = 50 mg/kg, […], dose level Low, time 14 day
[8] = 50 mg/kg, […], dose level Low, time 28 day

CC(=O)Oc1cc(C(C)C)c(OCCN(C)C)cc1C [MOXISYLYTE]
TERMINAL_BW [1]: 216.7 g
APTT [1]: 21.2 s
Bas [1]: 0%
Eos [1]: 1%
Fbg [1]: 327.4 mg/dL
Hb [1]: 13.7 g/dL
Ht [1]: 39.2%
Lym [1]: 81.2%
MCH [1]: 20.9 pg
MCHC [1]: 34.9%
MCV [1]: 59.9 fL
Mono [1]: 2.4%
Neu [1]: 14.2%
PT [1]: 16.5 s
Plat [1]: 116.4 x10_4/uL
RBC [1]: 655.4 x10_4/ul
Ret [1]: 6.2%
WBC [1]: 102.1 x10_2/uL
KIDNEY_L [1]: 0.9 g
KIDNEY_R [1]: 1 g
KIDNEY_TOTAL [1]: 1.9 g
LIVER [1]: 10.3 g
A/G [1]: 1.2
ALP [1]: 1472.6 IU/L
ALT [1]: 42.8 IU/L
AST [1]: 70.4 IU/L
BUN [1]: 17.2 mg/dL
CRE [1]: 0.2 mg/dL
Ca [1]: 10.8 mg/dL
Cl [1]: 106.6 meq/L
DBIL [1]: 0.004 mg/dL
GLC [1]: 181.4 mg/dL
IP [1]: 7 mg/dL
K [1]: 4.2 meq/L
LDH [1]: 202.6 IU/L
Na [1]: 142.4 meq/L
PL [1]: 154.2 mg/dL
RALB [1]: 3.1 g/dL
TBIL [1]: 0.014 mg/dL
TC [1]: 75.8 mg/dL
TG [1]: 97 mg/dL
TP [1]: 5.7 g/dL
gamma-GTP [1]: 1 IU/L
TERMINAL_BW [2]: 251.3 g
TERMINAL_BW [3]: 305.9 g
TERMINAL_BW [4]: 397.2 g
APTT [2]: 22.9 s
Bas [2]: 0%
Eos [2]: 0.6%
Fbg [2]: 294.6 mg/dL
Hb [2]: 13.6 g/dL
Ht [2]: 39%
Lym [2]: 81.4%
MCH [2]: 20.7 pg
MCHC [2]: 34.8%
MCV [2]: 59.5 fL
Mono [2]: 2%
Neu [2]: 15%
PT [2]: 15.6 s
Plat [2]: 119.6 x10_4/uL
RBC [2]: 656.8 x10_4/ul
Ret [2]: 5.1%
WBC [2]: 75.9 x10_2/uL
APTT [3]: 22.6 s
Bas [3]: 0%
Eos [3]: 1%
Fbg [3]: 308.2 mg/dL
Hb [3]: 15.1 g/dL
Ht [3]: 41.2%
Lym [3]: 79.4%
MCH [3]: 21.6 pg
MCHC [3]: 36.6%
MCV [3]: 59 fL
Mono [3]: 2%
Neu [3]: 16.4%
PT [3]: 16.1 s
Plat [3]: 118 x10_4/uL
RBC [3]: 699.2 x10_4/ul
Ret [3]: 5%
WBC [3]: 125 x10_2/uL
APTT [4]: 24 s
Bas [4]: 0%
Eos [4]: 1%
Fbg [4]: 320.8 mg/dL
Hb [4]: 14.4 g/dL
Ht [4]: 40.5%
Lym [4]: 82.2%
MCH [4]: 19.4 pg
MCHC [4]: 35.5%
MCV [4]: 54.7 fL
Mono [4]: 1.8%
Neu [4]: 13.5%
PT [4]: 15.9 s
Plat [4]: 100.5 x10_4/uL
RBC [4]: 741 x10_4/ul
Ret [4]: 3.1%
WBC [4]: 119.2 x10_2/uL
KIDNEY_L [2]: 1.1 g
KIDNEY_R [2]: 1.1 g
KIDNEY_TOTAL [2]: 2.1 g
KIDNEY_L [3]: 1.2 g
KIDNEY_R [3]: 1.3 g
KIDNEY_TOTAL [3]: 2.5 g
KIDNEY_L [4]: 1.5 g
KIDNEY_R [4]: 1.5 g
KIDNEY_TOTAL [4]: 3 g
LIVER [2]: 11.2 g
LIVER [3]: 13.3 g
LIVER [4]: 16.3 g
A/G [2]: 1.3
ALP [2]: 1660 IU/L
ALT [2]: 40.4 IU/L
AST [2]: 71.2 IU/L
BUN [2]: 18 mg/dL
CRE [2]: 0.2 mg/dL
Ca [2]: 10.7 mg/dL
Cl [2]: 106.6 meq/L
DBIL [2]: 0 mg/dL
GLC [2]: 189.2 mg/dL
IP [2]: 6.7 mg/dL
K [2]: 4.1 meq/L
LDH [2]: 219.2 IU/L
Na [2]: 142.6 meq/L
PL [2]: 155.2 mg/dL
RALB [2]: 3 g/dL
TBIL [2]: 0.004 mg/dL
TC [2]: 72.2 mg/dL
TG [2]: 138 mg/dL
TP [2]: 5.4 g/dL
gamma-GTP [2]: 1.4 IU/L
A/G [3]: 1.1
ALP [3]: 1709.2 IU/L
ALT [3]: 40 IU/L
AST [3]: 71.4 IU/L
BUN [3]: 20 mg/dL
CRE [3]: 0.2 mg/dL
Ca [3]: 10.7 mg/dL
Cl [3]: 106.2 meq/L
DBIL [3]: 0 mg/dL
GLC [3]: 197.6 mg/dL
IP [3]: 6 mg/dL
K [3]: 4.2 meq/L
LDH [3]: 170.8 IU/L
Na [3]: 141.4 meq/L
PL [3]: 148.4 mg/dL
RALB [3]: 3.1 g/dL
TBIL [3]: 0.008 mg/dL
TC [3]: 75.4 mg/dL
TG [3]: 114.6 mg/dL
TP [3]: 5.7 g/dL
gamma-GTP [3]: 1.4 IU/L
A/G [4]: 1.1
ALP [4]: 1031.5 IU/L
ALT [4]: 47.5 IU/L
AST [4]: 81.5 IU/L
BUN [4]: 17.5 mg/dL
CRE [4]: 0.2 mg/dL
Ca [4]: 10.3 mg/dL
Cl [4]: 104.5 meq/L
DBIL [4]: 0.0025 mg/dL
GLC [4]: 201.5 mg/dL
IP [4]: 6.9 mg/dL
K [4]: 4.1 meq/L
LDH [4]: 261 IU/L
Na [4]: 141 meq/L
PL [4]: 134.2 mg/dL
RALB [4]: 3 g/dL
TBIL [4]: 0.0025 mg/dL
TC [4]: 64.5 mg/dL
TG [4]: 116.5 mg/dL
TP [4]: 5.9 g/dL
gamma-GTP [4]: 1.5 IU/L
TERMINAL_BW [5]: 225.1 g
APTT [5]: 21.1 s
Bas [5]: 0%
Eos [5]: 1%
Fbg [5]: 329.8 mg/dL
Hb [5]: 13.7 g/dL
Ht [5]: 39.1%
Lym [5]: 80.6%
MCH [5]: 21.5 pg
MCHC [5]: 35%
MCV [5]: 61.5 fL
Mono [5]: 2.2%
Neu [5]: 14.6%
PT [5]: 16.2 s
Plat [5]: 126.9 x10_4/uL
RBC [5]: 635.6 x10_4/ul
Ret [5]: 6%
WBC [5]: 99.3 x10_2/uL
KIDNEY_L [5]: 1 g
KIDNEY_R [5]: 1 g
KIDNEY_TOTAL [5]: 1.9 g
LIVER [5]: 10.4 g
A/G [5]: 1.2
ALP [5]: 1826.8 IU/L
ALT [5]: 42.8 IU/L
AST [5]: 72.2 IU/L
BUN [5]: 16.2 mg/dL
CRE [5]: 0.2 mg/dL
Ca [5]: 11 mg/dL
Cl [5]: 106.4 meq/L
DBIL [5]: 0.004 mg/dL
GLC [5]: 178.8 mg/dL
IP [5]: 7.4 mg/dL
K [5]: 4.5 meq/L
LDH [5]: 242.8 IU/L
Na [5]: 141.4 meq/L
PL [5]: 158.8 mg/dL
RALB [5]: 3.1 g/dL
TBIL [5]: 0.004 mg/dL
TC [5]: 78.2 mg/dL
TG [5]: 108.8 mg/dL
TP [5]: 5.7 g/dL
gamma-GTP [5]: 1.2 IU/L
TERMINAL_BW [6]: 248.6 g
TERMINAL_BW [7]: 317.3 g
TERMINAL_BW [8]: 361 g
APTT [6]: 21.8 s
Bas [6]: 0%
Eos [6]: 0.6%
Fbg [6]: 312.6 mg/dL
Hb [6]: 13.7 g/dL
Ht [6]: 39.2%
Lym [6]: 79.6%
MCH [6]: 20.9 pg
MCHC [6]: 35.1%
MCV [6]: 59.5 fL
Mono [6]: 2.2%
Neu [6]: 16.8%
PT [6]: 15.9 s
Plat [6]: 122.1 x10_4/uL
RBC [6]: 659 x10_4/ul
Ret [6]: 4.9%
WBC [6]: 88.2 x10_2/uL
APTT [7]: 20.8 s
Bas [7]: 0%
Eos [7]: 1%
Fbg [7]: 308.8 mg/dL
Hb [7]: 14.2 g/dL
Ht [7]: 39.3%
Lym [7]: 77.8%
MCH [7]: 20.7 pg
MCHC [7]: 36.2%
MCV [7]: 57.2 fL
Mono [7]: 2.4%
Neu [7]: 18%
PT [7]: 16.1 s
Plat [7]: 108.1 x10_4/uL
RBC [7]: 686.8 x10_4/ul
Ret [7]: 5.1%
WBC [7]: 113.2 x10_2/uL
APTT [8]: 24.3 s
Bas [8]: 0%
Eos [8]: 1.2%
Fbg [8]: 324.8 mg/dL
Hb [8]: 14.9 g/dL
Ht [8]: 41.8%
Lym [8]: 84%
MCH [8]: 19.3 pg
MCHC [8]: 35.6%
MCV [8]: 54.3 fL
Mono [8]: 2%
Neu [8]: 12%
PT [8]: 16 s
Plat [8]: 101.5 x10_4/uL
RBC [8]: 770 x10_4/ul
Ret [8]: 2.5%
WBC [8]: 142.9 x10_2/uL
KIDNEY_L [6]: 1.1 g
KIDNEY_R [6]: 1.1 g
KIDNEY_TOTAL [6]: 2.2 g
KIDNEY_L [7]: 1.3 g
KIDNEY_R [7]: 1.2 g
KIDNEY_TOTAL [7]: 2.5 g
KIDNEY_L [8]: 1.4 g
KIDNEY_R [8]: 1.4 g
KIDNEY_TOTAL [8]: 2.8 g
LIVER [6]: 11.2 g
LIVER [7]: 14 g
LIVER [8]: 14.8 g
A/G [6]: 1.2
ALP [6]: 1475.2 IU/L
ALT [6]: 45 IU/L
AST [6]: 82.6 IU/L
BUN [6]: 16.6 mg/dL
CRE [6]: 0.2 mg/dL
Ca [6]: 10.6 mg/dL
Cl [6]: 106.6 meq/L
DBIL [6]: 0 mg/dL
GLC [6]: 179.4 mg/dL
IP [6]: 6.8 mg/dL
K [6]: 4.1 meq/L
LDH [6]: 202 IU/L
Na [6]: 141.6 meq/L
PL [6]: 146.6 mg/dL
RALB [6]: 3 g/dL
TBIL [6]: 0 mg/dL
TC [6]: 70.6 mg/dL
TG [6]: 144 mg/dL
TP [6]: 5.5 g/dL
gamma-GTP [6]: 1.2 IU/L
A/G [7]: 1.2
ALP [7]: 1349.4 IU/L
ALT [7]: 45.8 IU/L
AST [7]: 77.8 IU/L
BUN [7]: 19.8 mg/dL
CRE [7]: 0.2 mg/dL
Ca [7]: 10.8 mg/dL
Cl [7]: 107 meq/L
DBIL [7]: 0 mg/dL
GLC [7]: 186.6 mg/dL
IP [7]: 6.3 mg/dL
K [7]: 4.4 meq/L
LDH [7]: 256 IU/L
Na [7]: 141 meq/L
PL [7]: 156 mg/dL
RALB [7]: 3.2 g/dL
TBIL [7]: 0.002 mg/dL
TC [7]: 73.2 mg/dL
TG [7]: 184.6 mg/dL
TP [7]: 5.8 g/dL
gamma-GTP [7]: 1.4 IU/L
A/G [8]: 1
ALP [8]: 1078.4 IU/L
ALT [8]: 40.2 IU/L
AST [8]: 66.8 IU/L
BUN [8]: 17 mg/dL
CRE [8]: 0.2 mg/dL
Ca [8]: 10.4 mg/dL
Cl [8]: 106.6 meq/L
DBIL [8]: 0.002 mg/dL
GLC [8]: 184.4 mg/dL
IP [8]: 6.4 mg/dL
K [8]: 4.2 meq/L
LDH [8]: 147 IU/L
Na [8]: 142 meq/L
PL [8]: 151.2 mg/dL
RALB [8]: 3 g/dL
TBIL [8]: 0.002 mg/dL
TC [8]: 70 mg/dL
TG [8]: 170.4 mg/dL
TP [8]: 6 g/dL
gamma-GTP [8]: 2 IU/L
